Source: ChEMBL document CHEMBL1130962, “Selective alpha-1a adrenergic receptor antagonists. Effects of pharmacophore regio- and stereochemistry on potency and selectivity” (Bioorg Med Chem Lett, 1998)

Tests used:
Mu-type opioid receptor = Mu-type opioid receptor (Mus musculus, UniProt P42866); test: Opioid binding affinity was evaluated using [3H]DAMGO as radioligand
[1] = biological target: T1, Alpha-1B adrenergic receptor (Homo sapiens, UniProt P35368); test: Binding affinity against human Alpha-1b adrenergic receptor was evaluated by cloned receptor binding assay
T1 sequence (P35368 whole entry): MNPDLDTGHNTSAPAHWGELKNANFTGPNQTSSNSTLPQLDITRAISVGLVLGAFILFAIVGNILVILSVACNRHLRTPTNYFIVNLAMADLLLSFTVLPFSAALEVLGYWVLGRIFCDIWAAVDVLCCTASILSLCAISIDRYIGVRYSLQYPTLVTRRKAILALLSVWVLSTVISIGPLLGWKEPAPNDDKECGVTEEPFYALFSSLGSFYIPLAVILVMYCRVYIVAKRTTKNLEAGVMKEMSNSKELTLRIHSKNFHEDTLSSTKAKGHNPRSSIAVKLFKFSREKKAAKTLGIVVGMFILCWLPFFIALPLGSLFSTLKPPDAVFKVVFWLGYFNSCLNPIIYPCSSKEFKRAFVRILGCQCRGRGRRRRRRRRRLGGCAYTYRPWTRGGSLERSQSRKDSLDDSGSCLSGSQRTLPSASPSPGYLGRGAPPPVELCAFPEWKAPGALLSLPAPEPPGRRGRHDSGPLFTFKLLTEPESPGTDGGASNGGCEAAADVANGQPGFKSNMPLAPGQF

[2] = biological target: T2, Alpha-1D adrenergic receptor (Homo sapiens, UniProt P25100); test: Binding affinity against human Alpha-1d adrenergic receptor was evaluated by cloned receptor binding assay
T2 sequence (P25100 whole entry): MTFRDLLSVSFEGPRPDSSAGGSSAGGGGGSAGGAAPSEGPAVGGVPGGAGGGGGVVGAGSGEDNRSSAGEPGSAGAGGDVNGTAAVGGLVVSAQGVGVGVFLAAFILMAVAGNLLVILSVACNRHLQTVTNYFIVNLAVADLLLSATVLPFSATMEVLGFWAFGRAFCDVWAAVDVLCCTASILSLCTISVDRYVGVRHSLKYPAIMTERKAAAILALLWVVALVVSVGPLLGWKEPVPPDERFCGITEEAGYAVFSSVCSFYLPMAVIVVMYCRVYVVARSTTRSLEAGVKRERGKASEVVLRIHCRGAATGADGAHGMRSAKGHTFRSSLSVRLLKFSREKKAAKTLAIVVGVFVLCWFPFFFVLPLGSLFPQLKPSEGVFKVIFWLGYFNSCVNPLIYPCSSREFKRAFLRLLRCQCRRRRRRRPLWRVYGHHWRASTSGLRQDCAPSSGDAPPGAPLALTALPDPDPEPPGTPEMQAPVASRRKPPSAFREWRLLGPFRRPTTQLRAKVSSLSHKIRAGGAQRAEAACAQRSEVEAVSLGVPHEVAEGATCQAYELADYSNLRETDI

[3] = biological target: T3, Alpha-1A adrenergic receptor (Homo sapiens, UniProt P35348); test: Binding affinity against human Alpha-1a adrenergic receptor was evaluated by cloned receptor binding assay
T3 sequence (P35348 whole entry): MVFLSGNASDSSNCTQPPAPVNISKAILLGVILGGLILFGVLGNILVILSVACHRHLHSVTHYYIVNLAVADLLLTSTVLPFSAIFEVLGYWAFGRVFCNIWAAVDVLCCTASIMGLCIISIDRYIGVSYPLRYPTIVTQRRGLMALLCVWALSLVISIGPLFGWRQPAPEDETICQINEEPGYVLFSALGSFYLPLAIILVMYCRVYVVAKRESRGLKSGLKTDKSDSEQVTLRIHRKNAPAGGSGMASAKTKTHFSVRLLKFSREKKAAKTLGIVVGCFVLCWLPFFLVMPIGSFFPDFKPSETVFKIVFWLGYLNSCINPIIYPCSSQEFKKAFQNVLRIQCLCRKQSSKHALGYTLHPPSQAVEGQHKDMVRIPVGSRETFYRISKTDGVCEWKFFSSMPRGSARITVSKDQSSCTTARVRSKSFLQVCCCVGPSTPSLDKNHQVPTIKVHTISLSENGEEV

Mu-type opioid receptor, sequence (P42866 whole entry): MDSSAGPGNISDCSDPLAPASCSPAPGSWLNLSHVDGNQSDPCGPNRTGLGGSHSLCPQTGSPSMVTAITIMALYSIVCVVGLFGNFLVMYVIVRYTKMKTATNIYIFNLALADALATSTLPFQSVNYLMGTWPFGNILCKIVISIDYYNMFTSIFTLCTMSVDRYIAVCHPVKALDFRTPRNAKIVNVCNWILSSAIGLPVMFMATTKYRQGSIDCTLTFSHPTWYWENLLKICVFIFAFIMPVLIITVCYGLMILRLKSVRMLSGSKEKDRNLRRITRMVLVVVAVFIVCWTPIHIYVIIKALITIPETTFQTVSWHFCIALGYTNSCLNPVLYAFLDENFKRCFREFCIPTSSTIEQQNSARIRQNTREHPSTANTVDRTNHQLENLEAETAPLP

SMILES: CCOC(=O)C1CNCCC1c1ccccc1 (racemic)
- Ki (Mu-type opioid receptor): 24000 nM

SMILES: CCOC(=O)[C@@H]1CNCC[C@@H]1c1ccccc1
- Ki (Mu-type opioid receptor): 7600 nM

SMILES: CCOC(=O)[C@H]1CNCC[C@H]1c1ccccc1
- Ki (Mu-type opioid receptor): 12000 nM

SMILES: O=C1c2ccccc2S(=O)(=O)N1CCCCN1CCN(c2ncccn2)CC1 [IPSAPIRONE]
- Ki [1]: 220 nM
- Ki [2]: 46 nM
- Ki [3]: 87 nM

SMILES: COC(=O)C1(c2ccccc2)CCN(CCCCN2C(=O)c3cc(Cl)ccc3S2(=O)=O)CC1
- Ki [1]: 2200 nM
- Ki [2]: 2000 nM
- Ki [3]: 44 nM

SMILES: CCOC(=O)[C@@H]1CN(CCCCN2C(=O)c3cc(Cl)ccc3S2(=O)=O)CC[C@@H]1c1ccccc1
- Ki [1]: 170 nM
- Ki [2]: 480 nM
- Ki [3]: 0.51 nM

SMILES: CCOC(=O)C1CN(CCCCN2C(=O)c3cc(Cl)ccc3S2(=O)=O)CCC1c1ccccc1 (racemic)
- Ki [1]: 940 nM
- Ki [2]: 1800 nM
- Ki [3]: 3 nM

SMILES: CCOC(=O)[C@H]1CN(CCCCN2C(=O)c3cc(Cl)ccc3S2(=O)=O)CC[C@H]1c1ccccc1
- Ki [1]: > 2000 nM
- Ki [2]: 1100 nM
- Ki [3]: 98 nM

SMILES: CCOC(=O)[C@H]1CN(CCCCN2C(=O)c3cc(Cl)ccc3S2(=O)=O)CC[C@@H]1c1ccccc1 (racemic)
- Ki [1]: 1400 nM
- Ki [2]: 320 nM
- Ki [3]: 100 nM
